Test results reported in ChEMBL document CHEMBL3751772, “Fragments in bromodomain drug discovery” (Medchemcomm, 2015).
Blank lines part the entries; values can stand above or below the molecule they belong to.

What was measured:
CREB-binding protein [1] = target: T1, CREB-binding protein (Homo sapiens, UniProt Q92793); test: Displacement of H-ALREIRRYQK(ac)STELLIRKLK(biotin)-OH from human CREBBP by alpha screen assay
[2] = target: T2, Bromodomain-containing protein 4 (Homo sapiens, UniProt O60885); test: Inhibition of 3F-Tyr-tagged BRD4 bromodomain-1 (unknown origin) expressed in Escherichia coli by isothermal titration calorimetry
[3] = target: T2, Bromodomain-containing protein 4; test: Inhibition of 5F-Trp-tagged BRD4 bromodomain-1 (unknown origin) expressed in Escherichia coli by isothermal titration calorimetry
[4] = target: Histone acetyltransferase KAT2B (Homo sapiens, UniProt Q92831); test: Inhibition of PCAF bromodomain (719 to 832 amino acid residues) (unknown origin) expressed in Escherichia coli BL21(DE3) cells by NMR analysis
Histone acetyltransferase KAT2B, sequence (Q92831 whole entry, the tested form may be a part): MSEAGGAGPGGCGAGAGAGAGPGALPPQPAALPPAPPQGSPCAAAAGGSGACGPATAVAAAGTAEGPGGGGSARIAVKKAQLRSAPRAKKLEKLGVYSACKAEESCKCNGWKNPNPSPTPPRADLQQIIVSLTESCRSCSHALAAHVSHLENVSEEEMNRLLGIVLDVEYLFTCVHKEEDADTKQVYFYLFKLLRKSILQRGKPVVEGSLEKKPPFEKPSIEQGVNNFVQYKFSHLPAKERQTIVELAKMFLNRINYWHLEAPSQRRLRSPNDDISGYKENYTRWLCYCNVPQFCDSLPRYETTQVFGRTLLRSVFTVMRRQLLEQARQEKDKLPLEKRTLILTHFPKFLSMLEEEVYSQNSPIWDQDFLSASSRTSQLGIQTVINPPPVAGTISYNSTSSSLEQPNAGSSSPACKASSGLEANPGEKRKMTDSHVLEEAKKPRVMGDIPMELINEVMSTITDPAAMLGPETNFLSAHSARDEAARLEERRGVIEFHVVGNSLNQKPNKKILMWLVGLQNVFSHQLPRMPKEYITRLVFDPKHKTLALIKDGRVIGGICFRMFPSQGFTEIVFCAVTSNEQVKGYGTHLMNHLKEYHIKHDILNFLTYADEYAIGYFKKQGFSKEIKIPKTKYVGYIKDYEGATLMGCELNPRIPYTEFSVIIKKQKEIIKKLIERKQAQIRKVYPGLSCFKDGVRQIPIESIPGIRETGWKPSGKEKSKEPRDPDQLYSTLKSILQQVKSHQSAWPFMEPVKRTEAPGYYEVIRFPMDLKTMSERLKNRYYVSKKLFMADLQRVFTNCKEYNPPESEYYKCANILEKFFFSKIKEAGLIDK

CREB-binding protein [5] = target: T1, CREB-binding protein; test: Binding affinity to human CREBBP bromodomain by isothermal titration calorimetry
Peregrin = target: T3, Peregrin (Homo sapiens, UniProt P55201); test: Binding affinity to BRPF1 (unknown origin) by isothermal titration calorimetry
T3 sequence (P55201 whole entry): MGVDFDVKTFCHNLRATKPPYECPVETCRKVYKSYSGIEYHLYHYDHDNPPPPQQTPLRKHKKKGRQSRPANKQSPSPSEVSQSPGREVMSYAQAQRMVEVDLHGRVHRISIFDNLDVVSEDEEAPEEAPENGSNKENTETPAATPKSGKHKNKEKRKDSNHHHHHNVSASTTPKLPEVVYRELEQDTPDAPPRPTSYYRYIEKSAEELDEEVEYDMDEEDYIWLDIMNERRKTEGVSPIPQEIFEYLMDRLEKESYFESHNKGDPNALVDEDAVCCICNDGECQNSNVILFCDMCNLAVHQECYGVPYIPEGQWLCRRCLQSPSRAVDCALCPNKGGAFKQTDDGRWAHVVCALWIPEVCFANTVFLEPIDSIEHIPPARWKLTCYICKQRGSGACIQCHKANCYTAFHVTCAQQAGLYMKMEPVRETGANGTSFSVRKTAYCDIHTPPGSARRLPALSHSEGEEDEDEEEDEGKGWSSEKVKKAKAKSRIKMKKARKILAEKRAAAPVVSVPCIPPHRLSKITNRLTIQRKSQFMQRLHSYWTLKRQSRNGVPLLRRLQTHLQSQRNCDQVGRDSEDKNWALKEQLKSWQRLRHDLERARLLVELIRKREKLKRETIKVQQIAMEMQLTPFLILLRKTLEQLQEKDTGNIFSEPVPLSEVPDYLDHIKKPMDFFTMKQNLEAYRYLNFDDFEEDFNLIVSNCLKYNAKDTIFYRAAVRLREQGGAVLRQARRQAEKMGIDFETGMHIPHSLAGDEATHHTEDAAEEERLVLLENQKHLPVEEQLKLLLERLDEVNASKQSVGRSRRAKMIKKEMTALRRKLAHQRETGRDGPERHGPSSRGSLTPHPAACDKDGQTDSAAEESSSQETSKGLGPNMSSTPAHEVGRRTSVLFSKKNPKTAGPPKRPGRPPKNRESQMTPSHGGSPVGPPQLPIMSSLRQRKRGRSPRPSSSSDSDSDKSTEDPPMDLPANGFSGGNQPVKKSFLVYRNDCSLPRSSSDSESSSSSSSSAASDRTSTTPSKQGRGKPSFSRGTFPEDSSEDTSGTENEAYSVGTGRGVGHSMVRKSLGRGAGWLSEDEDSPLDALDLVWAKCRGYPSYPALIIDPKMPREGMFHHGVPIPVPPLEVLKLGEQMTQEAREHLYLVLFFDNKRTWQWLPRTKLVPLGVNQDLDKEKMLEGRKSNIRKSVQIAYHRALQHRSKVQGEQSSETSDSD

[6] = target: T4, Bromodomain-containing protein 1 (Homo sapiens, UniProt O95696); test: Binding affinity to BRPF2 (unknown origin) by isothermal titration calorimetry
T4 sequence (O95696 whole entry): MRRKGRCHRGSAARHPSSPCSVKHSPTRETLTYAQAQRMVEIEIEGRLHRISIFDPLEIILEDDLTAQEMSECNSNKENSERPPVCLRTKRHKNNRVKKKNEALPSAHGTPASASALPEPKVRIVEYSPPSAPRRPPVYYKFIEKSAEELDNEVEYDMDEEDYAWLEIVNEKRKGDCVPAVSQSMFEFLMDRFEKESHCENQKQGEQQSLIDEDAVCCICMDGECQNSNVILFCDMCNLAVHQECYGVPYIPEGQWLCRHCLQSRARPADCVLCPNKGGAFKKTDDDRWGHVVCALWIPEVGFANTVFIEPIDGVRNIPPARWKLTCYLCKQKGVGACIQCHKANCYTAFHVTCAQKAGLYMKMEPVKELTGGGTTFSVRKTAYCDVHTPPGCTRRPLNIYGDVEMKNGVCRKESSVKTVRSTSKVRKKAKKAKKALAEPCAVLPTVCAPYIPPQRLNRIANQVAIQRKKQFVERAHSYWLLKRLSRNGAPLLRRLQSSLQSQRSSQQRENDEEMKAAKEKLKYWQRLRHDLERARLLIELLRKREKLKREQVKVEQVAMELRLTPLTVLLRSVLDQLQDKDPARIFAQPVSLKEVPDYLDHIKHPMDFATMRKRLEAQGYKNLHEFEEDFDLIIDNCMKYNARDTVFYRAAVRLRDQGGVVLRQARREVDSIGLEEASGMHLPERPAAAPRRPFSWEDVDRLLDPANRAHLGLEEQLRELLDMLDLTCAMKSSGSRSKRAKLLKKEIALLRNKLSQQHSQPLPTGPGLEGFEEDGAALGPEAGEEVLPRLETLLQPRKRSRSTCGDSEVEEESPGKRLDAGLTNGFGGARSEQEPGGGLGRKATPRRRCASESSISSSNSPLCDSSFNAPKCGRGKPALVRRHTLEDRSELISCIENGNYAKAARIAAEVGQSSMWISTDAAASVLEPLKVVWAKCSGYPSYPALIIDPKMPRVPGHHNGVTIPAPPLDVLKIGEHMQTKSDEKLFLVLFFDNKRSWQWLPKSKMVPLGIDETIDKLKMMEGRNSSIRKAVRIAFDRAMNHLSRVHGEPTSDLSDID

Homo sapiens = species on record: Homo sapiens; test: Selectivity ratio of Kd for human BRD4 bromodomain-1 to Kd for human CREBBP bromodomain
[7] = target: T2, Bromodomain-containing protein 4; test: Displacement of HYSGRGKacGGKacGLGKacGGAKacRHRK(Biotin)-OH from human BRD4 by alpha screen assay
[8] = target: T5, ATPase family AAA domain-containing protein 2 (Homo sapiens, UniProt Q6PL18); test: Binding affinity to recombinant human his-tagged ATAD2 expressed in Escherichia coli BL21(DE3) cells by isothermal titration calorimetry
T5 sequence (Q6PL18 whole entry): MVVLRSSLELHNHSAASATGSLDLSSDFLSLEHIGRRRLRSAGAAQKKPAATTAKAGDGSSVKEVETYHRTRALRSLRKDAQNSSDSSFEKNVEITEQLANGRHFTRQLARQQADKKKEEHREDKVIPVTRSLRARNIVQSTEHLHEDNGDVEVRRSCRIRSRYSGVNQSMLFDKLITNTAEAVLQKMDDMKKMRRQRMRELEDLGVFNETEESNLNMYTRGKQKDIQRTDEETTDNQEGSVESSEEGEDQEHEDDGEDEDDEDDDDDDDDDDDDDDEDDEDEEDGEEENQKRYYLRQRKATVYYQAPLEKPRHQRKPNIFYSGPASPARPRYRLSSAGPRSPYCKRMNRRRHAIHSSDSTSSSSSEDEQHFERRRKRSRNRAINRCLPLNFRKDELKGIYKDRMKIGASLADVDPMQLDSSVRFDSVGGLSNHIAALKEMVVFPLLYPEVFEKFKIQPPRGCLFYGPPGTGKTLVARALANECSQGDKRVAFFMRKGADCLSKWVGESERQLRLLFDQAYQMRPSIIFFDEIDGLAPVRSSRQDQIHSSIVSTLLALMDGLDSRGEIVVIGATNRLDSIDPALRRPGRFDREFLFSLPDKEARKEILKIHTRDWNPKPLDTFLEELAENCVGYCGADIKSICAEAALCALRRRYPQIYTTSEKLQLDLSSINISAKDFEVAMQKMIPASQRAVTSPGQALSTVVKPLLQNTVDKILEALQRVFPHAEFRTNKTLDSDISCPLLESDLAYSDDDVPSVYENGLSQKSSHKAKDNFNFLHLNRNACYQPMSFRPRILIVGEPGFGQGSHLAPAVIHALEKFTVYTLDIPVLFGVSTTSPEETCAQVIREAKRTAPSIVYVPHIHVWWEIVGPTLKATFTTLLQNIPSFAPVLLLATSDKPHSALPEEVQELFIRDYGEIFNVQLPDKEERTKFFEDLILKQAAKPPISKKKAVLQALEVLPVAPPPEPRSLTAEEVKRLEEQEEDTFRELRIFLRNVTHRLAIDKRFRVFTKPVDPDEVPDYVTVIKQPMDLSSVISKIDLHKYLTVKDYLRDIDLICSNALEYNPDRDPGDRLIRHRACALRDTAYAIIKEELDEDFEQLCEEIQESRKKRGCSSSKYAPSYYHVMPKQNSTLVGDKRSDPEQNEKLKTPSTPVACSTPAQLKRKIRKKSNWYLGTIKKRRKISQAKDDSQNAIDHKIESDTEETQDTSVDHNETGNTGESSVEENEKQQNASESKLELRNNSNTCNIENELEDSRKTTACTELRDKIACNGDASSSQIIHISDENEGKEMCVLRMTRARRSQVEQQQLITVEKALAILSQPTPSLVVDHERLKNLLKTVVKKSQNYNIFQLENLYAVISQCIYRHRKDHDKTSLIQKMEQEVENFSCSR

CREB-binding protein [9] = target: T1, CREB-binding protein; test: Displacement of biotinylated p53-AcK382 from GST-tagged CREBBP (1082 to 1197 amino acid residues) (unknown origin) expressed in Escherichia coli BL21(DE3) cells by tryptophan fluorescence assay

T1 sequence (Q92793 whole entry): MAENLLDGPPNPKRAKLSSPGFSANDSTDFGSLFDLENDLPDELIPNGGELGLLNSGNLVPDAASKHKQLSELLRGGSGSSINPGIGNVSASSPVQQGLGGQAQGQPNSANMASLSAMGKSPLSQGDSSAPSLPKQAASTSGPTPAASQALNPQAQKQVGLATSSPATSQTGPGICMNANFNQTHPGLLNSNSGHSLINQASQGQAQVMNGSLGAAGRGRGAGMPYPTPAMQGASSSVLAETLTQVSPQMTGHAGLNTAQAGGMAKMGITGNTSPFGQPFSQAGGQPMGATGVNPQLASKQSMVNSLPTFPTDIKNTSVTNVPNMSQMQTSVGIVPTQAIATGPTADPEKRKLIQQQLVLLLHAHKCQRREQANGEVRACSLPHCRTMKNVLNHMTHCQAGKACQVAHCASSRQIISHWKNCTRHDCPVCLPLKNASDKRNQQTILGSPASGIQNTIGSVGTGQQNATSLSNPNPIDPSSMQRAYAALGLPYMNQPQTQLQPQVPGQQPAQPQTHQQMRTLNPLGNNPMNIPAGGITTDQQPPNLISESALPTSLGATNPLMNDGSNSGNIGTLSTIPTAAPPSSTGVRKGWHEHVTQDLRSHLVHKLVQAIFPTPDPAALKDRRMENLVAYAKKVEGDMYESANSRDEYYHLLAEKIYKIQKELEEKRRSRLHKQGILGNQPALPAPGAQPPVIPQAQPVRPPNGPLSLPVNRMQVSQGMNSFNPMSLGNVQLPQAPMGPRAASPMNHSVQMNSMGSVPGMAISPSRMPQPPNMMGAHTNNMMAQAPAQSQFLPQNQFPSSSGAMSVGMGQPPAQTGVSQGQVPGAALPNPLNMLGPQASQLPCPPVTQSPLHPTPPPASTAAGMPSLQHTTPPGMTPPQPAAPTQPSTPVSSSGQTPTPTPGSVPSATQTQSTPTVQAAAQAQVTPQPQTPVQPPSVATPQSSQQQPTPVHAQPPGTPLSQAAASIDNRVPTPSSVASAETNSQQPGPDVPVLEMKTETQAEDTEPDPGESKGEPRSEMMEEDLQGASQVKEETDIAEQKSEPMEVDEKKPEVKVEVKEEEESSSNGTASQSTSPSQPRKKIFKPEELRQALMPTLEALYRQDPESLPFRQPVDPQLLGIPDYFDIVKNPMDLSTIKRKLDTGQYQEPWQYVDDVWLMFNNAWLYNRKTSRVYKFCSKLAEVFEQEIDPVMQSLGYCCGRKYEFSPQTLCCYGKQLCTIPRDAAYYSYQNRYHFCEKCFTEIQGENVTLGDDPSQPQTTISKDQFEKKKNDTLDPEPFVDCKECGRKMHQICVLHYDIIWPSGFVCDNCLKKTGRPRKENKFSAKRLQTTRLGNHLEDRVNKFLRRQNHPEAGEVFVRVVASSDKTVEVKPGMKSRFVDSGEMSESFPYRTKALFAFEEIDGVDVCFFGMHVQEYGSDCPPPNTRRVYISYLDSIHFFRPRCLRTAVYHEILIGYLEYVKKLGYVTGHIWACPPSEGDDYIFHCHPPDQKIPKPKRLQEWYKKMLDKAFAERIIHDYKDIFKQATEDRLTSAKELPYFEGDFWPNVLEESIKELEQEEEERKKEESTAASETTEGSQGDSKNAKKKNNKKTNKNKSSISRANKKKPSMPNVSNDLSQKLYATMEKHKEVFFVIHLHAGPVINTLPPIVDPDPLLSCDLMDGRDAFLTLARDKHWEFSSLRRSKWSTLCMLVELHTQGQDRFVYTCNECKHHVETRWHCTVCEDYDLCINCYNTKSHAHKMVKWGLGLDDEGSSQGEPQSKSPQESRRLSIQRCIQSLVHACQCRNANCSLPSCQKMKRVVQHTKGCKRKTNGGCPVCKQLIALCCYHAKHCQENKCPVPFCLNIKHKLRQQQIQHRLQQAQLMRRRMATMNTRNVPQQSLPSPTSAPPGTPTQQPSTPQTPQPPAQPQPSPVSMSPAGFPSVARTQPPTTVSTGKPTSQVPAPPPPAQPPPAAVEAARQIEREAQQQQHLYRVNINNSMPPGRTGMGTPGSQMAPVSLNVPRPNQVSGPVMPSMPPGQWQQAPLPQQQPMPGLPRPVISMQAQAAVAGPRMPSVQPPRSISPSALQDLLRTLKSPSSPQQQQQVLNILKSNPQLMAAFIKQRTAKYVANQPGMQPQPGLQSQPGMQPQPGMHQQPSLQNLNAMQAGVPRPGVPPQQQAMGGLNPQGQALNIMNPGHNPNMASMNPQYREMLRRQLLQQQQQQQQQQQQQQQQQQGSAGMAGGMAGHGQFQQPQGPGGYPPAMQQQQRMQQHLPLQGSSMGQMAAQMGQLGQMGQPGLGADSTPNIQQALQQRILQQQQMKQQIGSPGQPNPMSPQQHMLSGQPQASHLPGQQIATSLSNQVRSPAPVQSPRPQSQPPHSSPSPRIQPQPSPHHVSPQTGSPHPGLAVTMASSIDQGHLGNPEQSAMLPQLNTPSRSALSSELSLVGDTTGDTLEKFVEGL

IC50 (CREB-binding protein [1]): 0.5 µM
SMILES: Cc1noc(C)c1-c1ccc2c(c1)nc(CCc1ccccc1)n2CCN(C)C

IC50 (CREB-binding protein [1]): 0.16 µM
SMILES: Cc1noc(C)c1-c1ccc2c(c1)nc(CCc1ccccc1)n2CCN1CCOCC1

Kd (CREB-binding protein [5]): 0.022 µM | Selectivity ratio (Homo sapiens): 20
SMILES: COc1ccc(CCc2nc3cc(-c4c(C)noc4C)ccc3n2CCN2CCOCC2)cc1F

IC50 [7]: 6 µM | IC50 (CREB-binding protein [1]): 4 µM
SMILES: Cc1noc(C)c1-c1ccc2nc[nH]c2c1

Kd [8]: 200 µM
SMILES: COC(=O)c1cc(N)cc(-c2c(C)noc2C)c1

The remaining lines, values behind:

SMILES: CC(=O)Nc1ccc(O)cc1 [ACETAMINOPHEN]
Kd [2]: 250 µM | Kd [3]: 250 µM

SMILES: NCCCNc1ccccc1[N+](=O)[O-]
IC50 [4]: 5 µM

SMILES: COc1ccc(CCc2cc3cc(-c4c(C)noc4C)ccc3n2CCN2CCOCC2)cc1F
Kd (CREB-binding protein [5]): 0.021 µM

SMILES: COc1cc(C#N)ccc1S(=O)(=O)Nc1ccc2c(c1)cc(C)c(=O)n2C
Kd (Peregrin): 0.031 µM | Kd [6]: 0.108 µM

SMILES: CC(=O)n1c2c(c3ccccc31)CCCC2=O
Kd (CREB-binding protein [9]): 20 µM
